In patent US20180273534A1, “PYRAZOLOPYRIDINE SULFONAMIDES AS NEMATICIDES” (BAYER CROPSCIENCE AKTIENGESELLSCHAFT, priority 2014, published 2018):
Several values for one entry are separate records, joined by “and”; a condition that tells them apart may be missing. Equal values may be shown once.

These compounds were tested on Meloidogyne incognita (assay: Meloidogyne incognita test (sand, salad seedlings, gall formation)). Conditions: application rate 20 ppm, after 14 days, 100% = no galls, 0% = galls equal to untreated control.
Assay type: in vivo
Procedure: Meloidogyne Incognita—Test
Solvent: 125.0 parts by weight of acetone
To produce a suitable preparation of active compound, 1 part by weight of active compound is mixed with the stated amount of solvent, and the concentrate is diluted with water to the desired concentration.
Vessels are filled with sand, a solution of the active ingredient, a suspension containing eggs and larvae of the southern root-knot nematode (Meloidogyne incognita) and salad seeds. The salad seeds germinate and the seedlings grow. Galls develop in the roots.
After 14 days the nematicidal activity is determined on the basis of the percentage of gall formation. 100% means no galls were found and 0% means the number of galls found on the roots of the treated plants was equal to that in untreated control plants.

| SMILES | nematicidal activity on the basis of the percentage of gall formation |
| --- | --- |
| O=C(NS(=O)(=O)c1ccccc1Cl)c1cc2cc(C(F)(F)F)ccn2n1 [Example I-1, N-[(2-chlorophenyl)sulfonyl]-5-(trifluoromethyl)pyrazolo[1,5-a]pyridine-2-carboxamide] | 100% |
| O=C(NS(=O)(=O)c1ncc(C(F)(F)F)cc1Cl)c1cc2c(Cl)cc(C(F)(F)F)cn2n1 [Example I-2] | 90% |
| COc1ccc(Cl)c(S(=O)(=O)NC(=O)c2cc3c(Cl)cc(C(F)(F)F)cn3n2)c1 [Example I-3] | 100% and 90% |
| O=C(NS(=O)(=O)c1ccccc1C(F)(F)F)c1cc2c(Cl)cc(C(F)(F)F)cn2n1 [Example I-4] | 90% |
| O=C(NS(=O)(=O)c1ccccc1OC(F)(F)F)c1cc2c(Cl)cc(C(F)(F)F)cn2n1 [Example I-5] | 90% |
| COc1ccccc1S(=O)(=O)NC(=O)c1cc2c(Cl)cc(C(F)(F)F)cn2n1 [Example I-8] | 90% |
| O=C(NS(=O)(=O)c1ccc(Cl)cc1)c1cc2c(Cl)cc(C(F)(F)F)cn2n1 [Example I-9] | 100% and 90% |
| Cc1ccccc1S(=O)(=O)NC(=O)c1cc2c(Cl)cc(C(F)(F)F)cn2n1 [Example I-10] | 90% |
| O=C(NS(=O)(=O)c1cccc(Cl)c1)c1cc2c(Cl)cc(C(F)(F)F)cn2n1 [Example I-12] | 90% |
| O=C(NS(=O)(=O)c1cc2c(cc1Cl)OC(F)(F)O2)c1cc2c(Cl)cc(C(F)(F)F)cn2n1 [Example I-14] | 90% |
| CCS(=O)(=O)NC(=O)c1cc2c(Cl)cc(C(F)(F)F)cn2n1 [Example I-16] | 100% |
| O=C(NS(=O)(=O)C1CC1)c1cc2c(Cl)cc(C(F)(F)F)cn2n1 [Example I-17] | 100% |
| O=C(NS(=O)(=O)c1c(Cl)cccc1Cl)c1cc2c(Cl)cc(C(F)(F)F)cn2n1 [Example I-18] | 100% |
| O=C(NS(=O)(=O)c1ccccc1Cl)c1cc2cc(C(F)(F)F)cc(Cl)n2n1 [Example I-19] | 100% |
| O=C(NS(=O)(=O)c1ccc(Cl)cc1)c1cc2cc(C(F)(F)F)cc(Cl)n2n1 [Example I-20] | 90% |
| O=C(NS(=O)(=O)c1c(Cl)cccc1Cl)c1cc2cc(C(F)(F)F)cc(Cl)n2n1 [Example I-21] | 100% |
| O=C(NS(=O)(=O)c1cc(Cl)ccc1Cl)c1cc2cc(C(F)(F)F)cc(Cl)n2n1 [Example I-22] | 100% |
| COc1ccc(Cl)c(S(=O)(=O)NC(=O)c2cc3cc(C(F)(F)F)cc(Cl)n3n2)c1 [Example I-23] | 100% |
| O=C(NS(=O)(=O)c1c(Cl)cccc1Cl)c1cc2cc(C(F)(F)F)ccn2n1 [Example I-25] | 100% |
| O=C(NS(=O)(=O)c1cc(Cl)ccc1Cl)c1cc2cc(C(F)(F)F)ccn2n1 [Example I-26] | 100% |
| COc1ccc(Cl)c(S(=O)(=O)NC(=O)c2cc3cc(C(F)(F)F)ccn3n2)c1 [Example I-27] | 100% |
| O=C(NS(=O)(=O)C1CC1)c1cc2cc(C(F)(F)F)ccn2n1 [Example I-29] | 90% |
| O=C(NS(=O)(=O)c1cccc(Cl)c1)c1cc2cc(C(F)(F)F)cc(Cl)n2n1 [Example I-30] | 100% and 90% |

| SMILES | nematicidal activity on the basis of the percentage of gall formation |
| --- | --- |
| CCS(=O)(=O)NC(=O)c1cc2cc(C(F)(F)F)cc(Cl)n2n1 [Example I-32] | 90% |
| O=C(NS(=O)(=O)c1cc(C(F)(F)F)ccc1Cl)c1cc2cc(C(F)(F)F)ccn2n1 [Example I-33] | 100% |
| CCOc1ccc(Cl)c(S(=O)(=O)NC(=O)c2cc3cc(C(F)(F)F)ccn3n2)c1 [Example I-34] | 100% |
| CCCOc1ccc(Cl)c(S(=O)(=O)NC(=O)c2cc3cc(C(F)(F)F)ccn3n2)c1 [Example I-35] | 100% |
| CCc1ccc(Cl)c(S(=O)(=O)NC(=O)c2cc3cc(C(F)(F)F)ccn3n2)c1 [Example I-36] | 100% |
| COc1ccc(Br)c(S(=O)(=O)NC(=O)c2cc3cc(C(F)(F)F)ccn3n2)c1 [Example I-37] | 100% |
| COc1ccc(F)c(S(=O)(=O)NC(=O)c2cc3cc(C(F)(F)F)ccn3n2)c1 [Example I-38] | 100% |
| CSc1cccc(Cl)c1S(=O)(=O)NC(=O)c1cc2cc(C(F)(F)F)ccn2n1 [Example I-39] | 100% |
| CCSc1cccc(Cl)c1S(=O)(=O)NC(=O)c1cc2cc(C(F)(F)F)ccn2n1 [Example I-40] | 100% |
| CC(C)Sc1cccc(Cl)c1S(=O)(=O)NC(=O)c1cc2cc(C(F)(F)F)ccn2n1 [Example I-41] | 100% |
| CC(C)Nc1cccc(F)c1S(=O)(=O)NC(=O)c1cc2cc(C(F)(F)F)ccn2n1 [Example I-42] | 100% |
| O=C(NS(=O)(=O)c1c(F)cccc1Cl)c1cc2cc(C(F)(F)F)ccn2n1 [Example I-43] | 100% |
| CCOc1ccc(Cl)c(S(=O)(=O)NC(=O)c2cc3cc(C(F)(F)F)cc(Cl)n3n2)c1 [Example I-44] | 90% |
| CCCOc1ccc(Cl)c(S(=O)(=O)NC(=O)c2cc3cc(C(F)(F)F)cc(Cl)n3n2)c1 [Example I-45] | 100% |
| COc1ccc(Cl)c(S(=O)(=O)NC(=O)c2cc3cc(Cl)cc(Cl)n3n2)c1 [Example I-49] | 90% |
| O=C(NS(=O)(=O)c1cc(Cl)ccc1Cl)c1cc2ccc(C(F)(F)F)cn2n1 [Example I-51] | 90% |
| O=C(NS(=O)(=O)c1c(Cl)cccc1Cl)c1cc2ccc(C(F)(F)F)cn2n1 [Example I-52] | 90% |
| CCOc1ccc(Cl)c(S(=O)(=O)NC(=O)c2cc3cc(Cl)cc(Cl)n3n2)c1 [Example I-57] | 100% |
| CCCOc1ccc(Cl)c(S(=O)(=O)NC(=O)c2cc3cc(Cl)cc(Cl)n3n2)c1 [Example I-58] | 100% |
| CCc1ccc(Cl)c(S(=O)(=O)NC(=O)c2cc3cc(Cl)cc(Cl)n3n2)c1 [Example I-59] | 100% |
| CSc1ccc(Cl)c(S(=O)(=O)NC(=O)c2cc3cc(Cl)cc(Cl)n3n2)c1 [Example I-60] | 100% |
| CCc1ccc(Cl)c(S(=O)(=O)NC(=O)c2cc3cc(C(F)(F)F)cc(Cl)n3n2)c1 [Example I-62] | 100% |
| CCSc1cccc(Cl)c1S(=O)(=O)NC(=O)c1cc2cc(C(F)(F)F)cc(Cl)n2n1 [Example I-63] | 100% |
